Reference: PubChem BioAssay (NCI)
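Protocol summary: plate cells (96-well), add compound at 5 concentrations, incubate 48 h, interpolate endpoints linearly. GI50 is the concentration that inhibits growth by half. Definition used: TGI = concentration required for complete inhibition of growth.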

What was measured:
Experiment in all cases: growth of human tumour cells (NCI), 48 h
[1] = system: HT29 colon
[2] = system: HOP-92 NSCLC
[3] = system: DU-145 prostate
[4] = system: OVCAR-4 ovarian
[5] = system: OVCAR-5 ovarian
[6] = system: OVCAR-3 ovarian
[7] = system: SK-MEL-2 melanoma
[8] = system: SK-MEL-28 melanoma
[9] = system: SNB-75 CNS
[10] = system: 786-0 renal

CC1(O)COCCCCOc2c(CN)cccc2NC(=O)c2nc(cnc2N)-c2ccc(cc2)S(=O)(=O)C(C)(C)C1 (configuration not stated)
GI50 [1]: 0.408 µM
TGI [1]: 2.47 µM
GI50 [2]: 1.31 µM
TGI [2]: 2.74 µM
GI50 [3]: 0.0388 µM
TGI [3]: 2.04 µM
GI50 [4]: 1.29 µM
TGI [4]: 2.71 µM
GI50 [5]: 2.04 µM
TGI [5]: 3.56 µM
GI50 [6]: 1.23 µM
TGI [6]: 2.56 µM
GI50 [7]: 1.74 µM
TGI [7]: 3.36 µM
GI50 [8]: 1.83 µM
TGI [8]: 3.47 µM
GI50 [9]: 0.17 µM
TGI [9]: 1.94 µM

Cc1c2cc[n+](C)cc2c(C)c2c1oc1ccccc12
TGI [1]: > 77.1 µM
TGI [2]: 32.7 µM
TGI [3]: 64.7 µM
TGI [4]: 21.8 µM
TGI [5]: 64 µM
TGI [6]: 16.7 µM
TGI [7]: 15.8 µM
TGI [10]: 31.8 µM
TGI [8]: 21.8 µM
TGI [9]: 5.49 µM

COc1ccc2c(c1)/C(=C\c1c(Cl)n(-c3ccccc3)c3ccccc13)C(=O)N2
TGI [1]: 14.2 µM
TGI [2]: 17.6 µM
TGI [3]: 21.4 µM
TGI [4]: 41.4 µM
TGI [5]: 50 µM
TGI [6]: 6.78 µM
TGI [7]: 51.1 µM
TGI [10]: 29.2 µM
TGI [8]: > 100 µM
TGI [9]: 52.2 µM

O=C(NC(Cc1ccc(I)cc1)C(=O)O)c1ccc(Cl)cc1 (configuration not stated)
TGI [1]: > 100 µM
TGI [2]: > 100 µM
TGI [4]: > 100 µM
TGI [5]: > 100 µM
TGI [6]: > 100 µM
TGI [7]: > 100 µM
TGI [8]: > 100 µM
TGI [9]: > 100 µM

CO/N=C(\C)c1cccc(Nc2nc3ccccc3c3occc23)c1
TGI [1]: 17.6 µM
TGI [2]: 20.3 µM
TGI [3]: 30.8 µM
TGI [4]: 31.8 µM
TGI [5]: 27.6 µM
TGI [6]: 33.1 µM
TGI [10]: 26.7 µM
TGI [8]: 27.6 µM
TGI [9]: 29.1 µM

CC1C(=O)C(C)C(c2ccco2)N(N=O)C1c1ccco1 (configuration not stated)
TGI [1]: > 100 µM
TGI [2]: > 100 µM
TGI [4]: > 100 µM
TGI [5]: > 100 µM
TGI [6]: > 100 µM
TGI [7]: > 100 µM
TGI [8]: > 100 µM
TGI [9]: > 100 µM

CSc1ccc(/C=C2\N=C(c3ccccc3)N(/N=C3\C(=O)Nc4ccccc43)C2=O)cc1
TGI [1]: > 100 µM
TGI [2]: > 100 µM
TGI [3]: > 100 µM
TGI [4]: > 100 µM
TGI [5]: > 100 µM
TGI [6]: > 100 µM
TGI [7]: > 100 µM
TGI [10]: > 100 µM
TGI [8]: > 100 µM
TGI [9]: > 100 µM

COC(=O)c1ccccc1C1=C([N+](=O)[O-])C(c2cccc(Br)c2)C(C#N)=C(N)O1 (configuration not stated)
TGI [1]: > 100 µM
TGI [2]: 62.1 µM
TGI [3]: > 100 µM
TGI [5]: > 100 µM
TGI [6]: 51.7 µM
TGI [7]: > 100 µM
TGI [10]: 63.2 µM
TGI [8]: > 100 µM
TGI [9]: 92.6 µM

CCO[C@]12CCC[C@H]1[C@@H]1C(=O)c3ccccc3C(=O)C1=C(C)O2
TGI [1]: > 100 µM
TGI [2]: > 100 µM
TGI [3]: > 100 µM
TGI [4]: 97.9 µM
TGI [5]: > 100 µM
TGI [6]: 50.3 µM
TGI [7]: > 100 µM
TGI [10]: > 100 µM
TGI [8]: > 100 µM
TGI [9]: > 100 µM

O=C1OC2(OC2c2ccc(Cl)cc2)c2ccccc21 (configuration not stated)
TGI [1]: > 100 µM
TGI [2]: > 100 µM
TGI [4]: > 100 µM
TGI [5]: > 100 µM
TGI [6]: > 100 µM
TGI [7]: > 100 µM
TGI [8]: > 100 µM
TGI [9]: > 100 µM

COc1cc([N+](=O)[O-])ccc1NC(=O)c1cccc([N+](=O)[O-])c1O
TGI [1]: > 100 µM
TGI [4]: > 100 µM
TGI [5]: > 100 µM
TGI [6]: > 100 µM
TGI [7]: 68 µM
TGI [8]: > 100 µM
TGI [9]: 70.5 µM

CCSc1nc(-c2cccs2)nc2ccc(I)cc12
TGI [1]: > 100 µM
TGI [3]: > 100 µM
TGI [4]: > 100 µM
TGI [5]: > 100 µM
TGI [6]: > 100 µM
TGI [7]: > 100 µM
TGI [10]: > 100 µM
TGI [8]: > 100 µM
TGI [9]: > 100 µM

CCCCCCCN(CCCCCCC)CC(O)c1cc2ccccc2c2cc(Br)ccc12 (configuration not stated)
TGI [1]: > 100 µM
TGI [2]: 77 µM
TGI [3]: 38.8 µM
TGI [4]: > 100 µM
TGI [5]: > 100 µM
TGI [6]: 36.4 µM
TGI [7]: 69.9 µM
TGI [10]: > 100 µM
TGI [8]: > 100 µM
TGI [9]: 93.9 µM

CCc1ccc2c(c1)C(=O)c1c-2n(CCCN)c(=O)c2cc([N+](=O)[O-])ccc12
GI50 [1]: 0.452 µM
TGI [1]: 2.07 µM
GI50 [2]: 2.34 µM
TGI [2]: 4.06 µM
GI50 [3]: 0.775 µM
TGI [3]: 2.05 µM
GI50 [4]: 1.39 µM
TGI [4]: 3 µM
GI50 [5]: 2.07 µM
TGI [5]: 3.59 µM
GI50 [6]: 1.58 µM
TGI [6]: 2.96 µM
GI50 [8]: 1.68 µM
TGI [8]: 3.2 µM

Oc1ccc(-c2nc3cc(F)ccc3s2)cc1
TGI [1]: 56.7 µM
TGI [2]: 47.1 µM
TGI [3]: 41.3 µM
TGI [4]: 36.9 µM
TGI [5]: 58.4 µM
TGI [6]: 41.5 µM
TGI [7]: 36.9 µM
TGI [10]: 92.6 µM
TGI [8]: 42.8 µM

c1ccc([P+](c2ccccc2)(c2ccccc2)c2ccc(-c3ccc([P+](c4ccccc4)(c4ccccc4)c4ccccc4)cc3)cc2)cc1
TGI [1]: 63.5 µM
TGI [3]: > 100 µM
TGI [4]: 94.8 µM
TGI [5]: > 100 µM
TGI [6]: 52.4 µM
TGI [7]: 62 µM
TGI [10]: > 100 µM
TGI [8]: > 100 µM
